Laboratory results: US20250230226A1, “PLXDC1/PLXDC2 ACTIVATORS AND THEIR USE IN THE TREATMENT OF BLOOD VESSEL DISORDERS” (THE REGENTS OF THE UNIVERSITY OF CALIFORNIA, priority 2019, published 2025)

Tests used:
tumor blood vessels = assay: Tumor animal model, bolus IV injection (FIG. 23-26); type: in vivo, mice; details: bolus IV injection at day 0
From the text: Treatment was done at day 0 by bolus IV injection. A. Raw data of tumor growth curves of the mice in the control group. B. Raw data of tumor growth curves of the mice in the treatment group. C. Comparison of the combined growth data of the control group and the treatment group.
Pictures of the whole animals in the experiment described in FIG. 11 show tumor morphological and color changes on day 1 and day 3. Treatment was done at day 0. Tumors in the treatment groups becomes darker in color on day 1 due to the destruction of tumor blood vessels and accumulation of blood in the tumors. Tumors in the treatment groups start to become yellower in color on day 3, consistent with the onset of tumor necrosis due to the lack of tumor blood vessels.
FIG. 25A-B show tumor morphological changes on live animals due to the treatment by PLXDC1-activating compound. Pictures of the whole animals in the experiment described in FIG. 11 show tumor morphological and color changes on day 7. Treatment was done at day 0. While the tumors in the control group have grown to large sizes, tumors in the treatment groups have highly shrunk in size and become yellow in color.
FIG. 26A-B show morphological changes of dissected tumors due to the treatment by PLXDC1-activating compound. Pictures of the dissected tumors in the experiment described in FIG. 11 show tumor morphological and color changes on day 7. […]

PLXDC1 = molecular target: T1, PLXDC1 (Homo sapiens, UniProt Q8IUK5); assay: Gfi1b promotor luciferase receptor activation assay, PLXDC1-expressing cells (FIG. 18A, 19); type: cell-based; details: compound treatments 1 day; basal activity defined as 1
T1 construct: expressed in transfected cells
T1 sequence (Q8IUK5 19-500): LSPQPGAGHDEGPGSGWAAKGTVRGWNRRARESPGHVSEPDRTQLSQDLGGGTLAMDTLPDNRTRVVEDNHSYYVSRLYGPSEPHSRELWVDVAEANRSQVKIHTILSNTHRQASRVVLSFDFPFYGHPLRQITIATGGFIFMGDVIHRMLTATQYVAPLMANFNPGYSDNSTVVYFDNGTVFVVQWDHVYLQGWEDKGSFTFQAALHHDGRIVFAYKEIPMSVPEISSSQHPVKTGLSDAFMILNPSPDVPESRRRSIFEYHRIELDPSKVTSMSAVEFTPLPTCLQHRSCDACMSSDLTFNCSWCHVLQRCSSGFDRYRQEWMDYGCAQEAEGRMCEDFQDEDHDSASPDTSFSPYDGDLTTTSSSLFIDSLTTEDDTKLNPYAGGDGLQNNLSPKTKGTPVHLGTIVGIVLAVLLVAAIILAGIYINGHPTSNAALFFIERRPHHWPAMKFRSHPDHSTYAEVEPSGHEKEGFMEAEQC
From the text: FIG. 18A-B show activation of PLXDC1 and PLXDC2 by small molecules. […] All compound treatments were done for 1 day. Basal promotor activity of the PLXDC1-expressing cells is defined as 1.
Basal promotor activity of the PLXDC1-expressing cells is defined as 1. The basal activity of PLXDC1-expressing cells (Control) are higher than cells without PLXDC1, consistent promotor activation by the ectopic expression of the receptor without ligands.
By linking its promotor to a luciferase reporter gene, this example developed a PLXDC1 receptor activation assay.

Question: What does the source list for CCCCCCCCCCCCCCOc1ccc(S(=O)(=O)c2cnc3ccc([S+](C)[O-])cc3c2N2CCC(N3CCC(N4CCN(C)CC4)CC3)CC2)cc1 (centres unmarked) [Compound 346]?
Answer: Tumor growth / shrinkage (tumor blood vessels): shrank the tumors significantly; Gfi1b promotor activity in PLXDC1-expressing cells (PLXDC1): highly activated the promotor activity
